pEC50: −log10 of the molar value.
Assays:
[1] = system: cortical cell cultures; test: In vitro assay on ischemia (cortical cell cultures, potassium cyanide and 2-deoxyglucose); format: cell-based; conditions: 1 h, read-out: EC50 (neuroprotective effect)
Method: In Vitro Assay on Ischemia
To examine the in vitro effect of the compounds of formula I on ischemia, cortical cell cultures were treated with various compounds of formula I during an ischemic insult utilizing potassium cyanide and 2-deoxyglucose, and for one hour thereafter (for experimental details, see Vomov et al., J. Neurochem., Vol. 65, No. 4, pp. 1681-1691 (1995)).

[2] = system: STZ-induced diabetic rats; test: In vivo assay on neuropathic pain, STZ-diabetic rats (Hargreaves thermal nociception); set-up: species or system Sprague-Dawley rats; conditions: 10 mg/kg i.p. daily, FIGS. 13A and 13B
Method: In Vivo Assay of NAALADase Inhibitors on Neuropathic Pain
Male Sprague-Dawley rats (200-225 g) were rendered diabetic by intravenous administration of streptozotocin (“STZ”, 70 mg/kg in phosphate buffered saline). Diabetic animals were divided into five groups: one group receiving Compound A (10 mg/kg or 1 mg/kg), Compound D (10 mg/kg or 1 mg/kg) or vehicle. Another group of animals (non-STZ treated) served as non-diabetic controls. Drug/vehicle treatment was started in diabetic animals 45 days post-STZ administration. STZ-induced diabetic rats were tested for sensitivity to a heat source as soon as blood glucose levels rose to 320 mg/dl or above (30 days post STZ). The rats were then acclimated to the Hargreaves apparatus and thermal nociception was monitored using an infrared heat source directed into the dorsal surface of the hindpaw, and the time taken for the animal to remove its paw noted to the nearest 0.1 seconds (for detailed method, see Hargreaves et al., J. Biol. Chem. (1988) 263(36):19392-7). The intensity of the beam source was adjusted such that the mean latency for control animals (non-STZ treated) was approximately 10 seconds. Each animal was tested 8 times and the mean difference score (between mean non-diabetic control latency and mean diabetic latency) are graphically presented in FIGS. 13A and 13B.

[3] = system: BB/W diabetic rats; test: Withdrawal latency in BB/W diabetic rats (Hargreaves); format: in vivo; conditions: 10 mg/kg i.p. daily, vs diabetic vehicle-treated rats, from 4 weeks through six months, FIG. 17
Description: (§1) Male BB/W rats (BRI, Mass) spontaneously develop a cell mediated autoimmune destruction of pancreatic B cells, resulting in onset of insulin-dependent (Type I) diabetes (Awata and Guberski et al., Endocrinology 1995 December; 136(12):5731-5). […] This renders them valuable for experimental trials of new compounds for future treatments of this major disorder. In the present study, Compound D and Compound A were examined for their ability to alter the progression of diabetic neuropathy. The rats received daily injection of Compound D or Compound A (10 mg/kg i.p.) or vehicle, starting at the onset of diabetes (hyperglycemia) and up to 6 months thereafter. Another group of non-diabetic rats also receiving vehicle were tested. All animals were continuously monitored for body weight, urine volume, blood sugar and glycated haemoglobin. In the first month of the study, all animals were tested for thermal nociception in a Hargreaves apparatus, weekly. After the first month this was done biweekly and then monthly. The testing consists of directing an infrared heat source onto the dorsal surface of the rat hindpaw and noting the time taken for the animal to remove its paw (for detailed method, see Hargreaves et al., J. Biol. Chem. 1988 Dec. 25; 263(36):19392-7). Each animal was tested 8 times and the mean withdrawal latency noted.

[4] = system: BB/W diabetic rats; test: Nerve conduction velocity in BB/W diabetic rats; format: in vivo; conditions: 10 mg/kg daily, vs diabetic vehicle controls, from 8 weeks to six months, FIG. 18
Description: as §1, with “The testing consists of directing an infrared heat source onto the dorsal surface of the rat hindpaw and noting the time taken for the animal to remove its paw (for detailed method, see Hargreaves et al., J. Biol. Chem. 1988 Dec. 25; 263(36):19392-7). Each animal was tested 8 times and the mean withdrawal latency noted.” left out
Nerve conduction velocity was also measured every two weeks through the first eight weeks of treatment and every month thereafter through to the six months of treatment. […]

[5] = system: STZ-diabetic rats; test: In vivo assay on diabetic neuropathy: motor and sensory nerve conduction velocity in STZ-diabetic rats; conditions: vs diabetic controls; for sensory nerve conduction velocity / motor nerve conduction velocity: 10 mg/kg daily; for sensory nerve conduction velocity: significant after 8 weeks (Compound A) or 12 weeks (Compound D); for motor nerve conduction velocity: significant after 12 weeks
Method: In Vivo Assay of NAALADase Inhibitors on Diabetic Neuropathy
Motor and sensory nerve conduction velocity was also measured in STZ-diabetic animals after 4, 8 and 12 weeks of treatment. For detailed method, see De Koning et al., Peptides 1987 May-Jun. 1987; 8(3):415-22. Briefly, stimulating needle electrodes were inserted close to the sciatic and tibial nerves with recording electrodes being placed subcutaneously over the distal foot muscles, in anesthetized rats.

[6] = system: TGF-β1; test: Effect on TGF-β1 in in vitro ischemia model; format: cell-based; conditions: ischemic cell cultures, FIG. 1
Method: (§2) Effect of NAALADase Inhibition on TGF-β in In Vitro Ischemia Model
(§3) A NAALADase inhibitor, Compound C, was added to ischemia cell cultures to determine its effect on TGF-β levels during stroke. The experimental data, set forth

[7] = system: TGF-β2; test: Effect on TGF-β2 in in vitro ischemia model; format: cell-based; conditions: ischemic cell cultures, FIG. 2
Method: as §2, §3

[8] = system: ischemic cell cultures; test: Neuroprotective effect in ischemic cell cultures with neutralizing antibodies; format: cell-based; conditions: in vitro ischemia model
Method: TGF-β neutralizing antibodies were then added to the ischemic cell cultures.

[9] = system: TGF-β1; test: TGF-β1 levels in rats subjected to MCAO (microdialysis); format: in vivo; conditions: FIG. 6
[10] = system: rats subjected to middle cerebral artery occlusion; test: Neuroprotective effect in MCAO rats with TGF-β neutralizing antibodies; format: in vivo; conditions: FIG. 5
Description: The effect of TGF-β neutralizing antibodies on the neuroprotective effect of Compound C was also studied in rats following MCAO.
One of ordinary skill in the art can appreciate that the regulation of TGF-β's by NAALADase inhibitors may have implications not only in stroke, but also in other diseases, disorders and conditions including, without limitation, neurological diseases, psychiatric diseases, demyelinating diseases, prostate cancer, inflammation, and angiogenesis.

[11] = system: chronic constrictive injury-induced rats; test: Neuropathic pain progression, CCI model (sciatic nerve ligation, Hargreaves); format: in vivo; conditions: 50 mg/kg i.p. daily starting 10 days post surgery, vs vehicle, significant from 11 days of treatment, FIG. 14
Method: In Vivo Assay of NAALADase Inhibitors on Neuropathic Pain Progression CCI Model
Sciatic nerve ligation, consisting of 4 ligatures tied loosely around the sciatic nerve at 1 mm intervals proximal to the nerve trifurcation, was performed on rats. […] The rats were habituated to a Hargreaves apparatus. An infrared heat source was directed onto the dorsal surface of each rat's hindpaws and the time taken for the rat to withdraw its paws was noted. The difference in scores between the latency of the response for the paw on the operated side versus the paw on the unoperated control side was determined.
Animals received Compound C (50 mg/kg i.p. daily) or vehicle, starting 10 days post surgery. […] Normal (unoperated) rats had approximately equal latencies for both paws. This effect was significant starting at 11 days of drug treatment and persisted through to the end of the study (for 21 days of daily dosing).

For `O=C(O)c1ccc(OCCCSSCCCOc2ccc(C(=O)O)cc2C(=O)O)c(C(=O)O)c1` [Compound 19, 4-[3-[[3-(2,4-dicarboxyphenoxy)propyl]-dithio]propoxy]-1,3-benzenedicarboxylic acid], the pEC50 [1] was 5.60.

With `O=C(O)c1ccc(CCS)c(C(=O)O)c1` [Compound 22, 4-(2-mercaptoethyl)-1,3-benzenedicarboxylic acid] the pEC50 [1] was 7.22.

Work on `O=C(O)c1cc(OCCCS)cc(C(=O)O)c1` [Compound 36, 5-(3-mercaptopropoxy)-1,3-benzenedicarboxylic acid] yielded a pEC50 [1] of 5.91.

`O=C(O)c1cc(C(=O)O)cc(C(=O)NO)c1` [Compound 39, 5-[(hydroxyamino)-carbonyl]-1,3-benzenedicarboxylic acid] gave a pEC50 [1] of 6.33.

Work on `O=C(O)c1cc(CS)cc(C(=O)O)c1` [Compound 41, 5-mercaptomethyl-1,3-benzenedicarboxylic acid] yielded a pEC50 [1] of 6.76.

For `O=C(O)CCC(CP(=O)(O)Cc1c(F)c(F)c(F)c(F)c1F)C(=O)O` (centres unmarked) [Compound A, 2-[[(2,3,4,5,6-pentafluorobenzyl)hydroxyphosphinyl]methyl]pentanedioic acid], the “hyperalgesic response (withdrawal latency difference score)” value [2] was “completely reversed”, the withdrawal latency [3] was “longer withdrawal latencies” and the nerve conduction velocity [4] was “significantly less severe nerve conduction deficits”. For the same compound, the “sensory nerve conduction velocity” value [5] was “significant improvement” and the “motor nerve conduction velocity” value [5] was “significant improvement”.

With `O=C(O)CCC(CP(=O)(O)O)C(=O)O` (centres unmarked) [Compound C, 2-(phosphonomethyl)pentanedioic acid] the TGF-β1 concentrations [6] was “increased concentrations”, the TGF-β2 concentrations [7] was “increased concentrations” and the “neuroprotective effect with TGF-β neutralizing antibodies added” value ([8]; FIG. 3) was “blocked”. For the same compound, the “neuroprotective effect with FGF antibody added” value ([8]; FIG. 4) was “did not block”, the “TGF-β1 levels during occlusion and reperfusion” value [9] was “significant rise” and the “neuroprotective effect in vivo with TGF-β neutralizing antibodies” value [10] was “significantly attenuated”. The “difference scores between the two paws (withdrawal latency)” value [11] was “dramatically normalized”.

In the case of `O=C(O)CCC(CCS)C(=O)O` (centres unmarked) [Compound D, 2-(2-sulfanylethyl)pentanedioic acid], the “hyperalgesic response (withdrawal latency difference score)” value [2] was “completely reversed”, the withdrawal latency [3] was “longer withdrawal latencies” and the nerve conduction velocity [4] was “significantly less severe nerve conduction deficits”. For the same compound, the “motor and sensory nerve conduction velocities” value ([5]; 1 mg/kg dose) was “increased”, the “sensory nerve conduction velocity” value [5] was “increased” and the “motor nerve conduction velocity” value [5] was “increased”.

Source: patent US6852750B2, “Benzenedicarboxylic acid derivatives” (Guilford Pharmaceuticals, Inc., priority 2000, dated 2005)
